Common to all, as to assay type: functional
The target in test [1] is T1, Cdk-related protein kinase 6 (Plasmodium falciparum, UniProt O77239).
T1 sequence (O77239 whole entry): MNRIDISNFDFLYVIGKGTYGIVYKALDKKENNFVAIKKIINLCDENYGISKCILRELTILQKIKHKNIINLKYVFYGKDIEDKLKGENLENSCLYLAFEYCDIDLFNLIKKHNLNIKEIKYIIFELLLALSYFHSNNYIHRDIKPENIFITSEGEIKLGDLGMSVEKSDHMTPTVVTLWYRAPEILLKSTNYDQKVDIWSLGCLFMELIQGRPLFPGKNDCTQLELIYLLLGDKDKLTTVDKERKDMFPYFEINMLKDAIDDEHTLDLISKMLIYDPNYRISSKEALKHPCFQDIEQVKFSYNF
Description: Final concentrations were 1.5 uM ATP, 5 mM MnCl2, and 15 ug/ml PK6 in a buffer of 100 mM Tris-HCl (pH 7.5). 50 ug/mL MBP was provided as the substrate; 10 uM staurosporine was used as a control inhibitor. Incubation time was 3 hours and 40 minutes.The catalytic activity of each kinase was considered proportional to ATP consumed, as determined from measurements of residual [ATP] with the luciferase-based reagent Kinase-Glo (Promega) following incubation. Luminescence (proportional to residual [ATP]) was measured on the plate readers FLx800 (BioTek Instruments, Winooski, VT, USA) and MicroBeta2. In general terms: In Kinase-Glo more light means more ATP remaining.

The target of test [2] is T2, Putative uncharacterized protein pk7 (Plasmodium falciparum, UniProt O96214).
T2 sequence (O96214 whole entry): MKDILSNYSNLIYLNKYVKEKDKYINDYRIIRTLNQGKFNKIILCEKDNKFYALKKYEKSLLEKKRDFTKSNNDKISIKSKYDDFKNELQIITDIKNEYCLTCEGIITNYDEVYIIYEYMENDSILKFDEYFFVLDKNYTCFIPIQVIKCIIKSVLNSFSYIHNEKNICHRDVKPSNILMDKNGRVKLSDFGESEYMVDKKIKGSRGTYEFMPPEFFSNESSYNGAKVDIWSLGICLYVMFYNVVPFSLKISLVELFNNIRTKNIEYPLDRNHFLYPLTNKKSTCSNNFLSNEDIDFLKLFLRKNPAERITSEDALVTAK
As to the kind of experiment: Final concentrations were 1 uM ATP, 2 mM DTT, 20 mM MgCl2, 2 mM MnCl2, 0.01% BSA, and 6 ug/ml PK7, in a buffer of 20 mM Tris-HCl (pH 7.5). The enzyme itself was the only substrate present (since autophosphorylation occurs); 100 uM 1NA-PP1 was used as a control inhibitor. Incubation time was 3 hours.

Test [3] deals with T3, Mitogen-activated protein kinase (Plasmodium falciparum, UniProt Q25917).
T3 sequence (Q25917 whole entry): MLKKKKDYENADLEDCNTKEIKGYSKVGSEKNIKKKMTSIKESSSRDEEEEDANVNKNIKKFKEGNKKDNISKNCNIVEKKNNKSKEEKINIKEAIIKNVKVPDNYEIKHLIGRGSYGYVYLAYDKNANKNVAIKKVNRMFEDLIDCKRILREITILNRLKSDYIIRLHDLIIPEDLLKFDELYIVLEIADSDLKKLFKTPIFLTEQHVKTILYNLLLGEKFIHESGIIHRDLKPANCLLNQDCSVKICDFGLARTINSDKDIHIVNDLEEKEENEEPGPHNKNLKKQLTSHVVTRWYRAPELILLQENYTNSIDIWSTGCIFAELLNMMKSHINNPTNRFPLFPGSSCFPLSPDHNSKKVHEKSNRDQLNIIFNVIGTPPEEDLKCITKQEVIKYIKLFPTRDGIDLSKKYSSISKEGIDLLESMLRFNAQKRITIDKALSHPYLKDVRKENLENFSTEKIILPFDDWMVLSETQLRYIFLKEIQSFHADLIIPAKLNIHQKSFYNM
As to the kind of experiment: Final concentrations were 1 uM ATP, 0.5 mM DTT, 1 mM MgCl2, 0.5 mg/mL BSA, and 10 ug/ml MAP2 in a buffer of 50 mM HEPES (pH 7.0). 0.5 mg/mL histone III-S served as the substrate (13); 100 uM AMP-PNP, an ATP analog, was used as a control inhibitor. Incubation time was 4 hours.

Test [4] addresses Calcium-dependent protein kinase 1 (Plasmodium falciparum, UniProt P62344). Description: MMV: CDPK1 Protein kinase inhibition assay using recombinant PfCDPK1, syntide 2 peptide substrate, ATP and KinaseGlo to measure % inhibition at 1 uM MMV box compound.
For test [5], the target named is T4, Calcium-dependent protein kinase 4 (Plasmodium falciparum (isolate 3D7), UniProt Q8IBS5).
T4 sequence (Q8IBS5 whole entry): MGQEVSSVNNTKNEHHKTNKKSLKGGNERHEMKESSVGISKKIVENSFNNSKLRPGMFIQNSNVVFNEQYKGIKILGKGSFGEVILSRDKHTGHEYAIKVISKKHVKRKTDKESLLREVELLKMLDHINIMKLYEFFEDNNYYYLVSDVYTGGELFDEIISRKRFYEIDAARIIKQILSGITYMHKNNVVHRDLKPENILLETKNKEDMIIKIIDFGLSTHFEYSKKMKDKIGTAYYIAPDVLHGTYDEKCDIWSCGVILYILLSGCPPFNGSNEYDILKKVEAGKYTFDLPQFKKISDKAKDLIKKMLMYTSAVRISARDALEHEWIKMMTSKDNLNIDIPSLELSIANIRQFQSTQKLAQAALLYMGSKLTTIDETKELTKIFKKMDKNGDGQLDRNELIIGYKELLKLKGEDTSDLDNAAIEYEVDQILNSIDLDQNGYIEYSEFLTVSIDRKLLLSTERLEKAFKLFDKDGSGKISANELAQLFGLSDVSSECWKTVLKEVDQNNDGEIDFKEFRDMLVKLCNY
Description: MMV: CDPK4 Protein kinase inhibition assay using recombinant PfCDPK4, syntide2 peptide substrate, ATP and KinaseGlo to measure % inhibition at 1 uM MMV box compound.

The target of a further test is T5, Proline--tRNA ligase (Plasmodium falciparum (isolate 3D7), UniProt Q8I5R7).
T5 sequence (Q8I5R7 whole entry): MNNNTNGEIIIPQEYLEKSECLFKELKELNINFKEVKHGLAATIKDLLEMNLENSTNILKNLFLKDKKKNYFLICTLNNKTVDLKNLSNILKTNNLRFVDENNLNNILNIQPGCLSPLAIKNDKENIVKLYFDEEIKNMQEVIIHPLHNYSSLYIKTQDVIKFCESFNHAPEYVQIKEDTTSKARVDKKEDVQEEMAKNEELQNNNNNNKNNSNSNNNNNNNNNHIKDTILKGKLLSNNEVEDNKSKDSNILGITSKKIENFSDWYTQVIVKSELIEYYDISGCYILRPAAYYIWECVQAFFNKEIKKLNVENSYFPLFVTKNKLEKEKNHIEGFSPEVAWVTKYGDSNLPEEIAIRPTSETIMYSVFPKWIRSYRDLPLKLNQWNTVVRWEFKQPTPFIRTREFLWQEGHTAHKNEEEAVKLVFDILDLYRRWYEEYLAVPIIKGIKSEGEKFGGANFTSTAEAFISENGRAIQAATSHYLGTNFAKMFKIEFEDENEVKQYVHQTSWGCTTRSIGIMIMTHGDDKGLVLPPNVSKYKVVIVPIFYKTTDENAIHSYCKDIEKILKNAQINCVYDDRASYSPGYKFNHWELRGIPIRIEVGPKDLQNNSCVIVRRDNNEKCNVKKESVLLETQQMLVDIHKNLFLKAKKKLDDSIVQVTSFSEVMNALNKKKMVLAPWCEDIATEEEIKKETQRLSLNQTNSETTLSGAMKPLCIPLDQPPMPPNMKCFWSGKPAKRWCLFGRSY
As to the kind of experiment: MMV: ProRS recombinant Plasmodium falciparum Prolyl-tRNA-synthetase, assay with yeast tRNA, ATP, and proline and 3 uM MMV malaria box compound, assay read out with kinase glo as % inhibition.

A further test deals with Lysine--tRNA ligase (Plasmodium falciparum (isolate 3D7), UniProt Q8IDJ8). Description: MMV: KRS recombinant Plasmodium falciparum Lysyl-tRNA-synthetase, assay with yeast tRNA, ATP, and lysine and 3 uM MMV malaria box compound, assay read out with kinase glo as % inhibition.
Chain of Lysine--tRNA ligase (Q8IDJ8 whole entry): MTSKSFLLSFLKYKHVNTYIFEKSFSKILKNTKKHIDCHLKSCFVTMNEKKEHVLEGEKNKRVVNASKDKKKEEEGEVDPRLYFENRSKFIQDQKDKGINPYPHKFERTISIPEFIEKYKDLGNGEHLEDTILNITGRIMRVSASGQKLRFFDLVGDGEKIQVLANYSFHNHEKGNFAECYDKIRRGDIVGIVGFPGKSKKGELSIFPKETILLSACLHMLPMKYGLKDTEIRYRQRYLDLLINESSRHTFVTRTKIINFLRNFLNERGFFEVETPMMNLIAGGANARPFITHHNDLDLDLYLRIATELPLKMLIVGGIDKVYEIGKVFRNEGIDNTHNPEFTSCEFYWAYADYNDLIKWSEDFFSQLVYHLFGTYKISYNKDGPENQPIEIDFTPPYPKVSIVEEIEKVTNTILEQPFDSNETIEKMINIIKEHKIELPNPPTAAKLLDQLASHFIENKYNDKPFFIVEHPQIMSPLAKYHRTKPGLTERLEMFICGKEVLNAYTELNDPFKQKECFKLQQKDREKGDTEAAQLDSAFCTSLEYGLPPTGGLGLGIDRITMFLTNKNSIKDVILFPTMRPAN

Chain of Calcium-dependent protein kinase 1 (P62344 whole entry): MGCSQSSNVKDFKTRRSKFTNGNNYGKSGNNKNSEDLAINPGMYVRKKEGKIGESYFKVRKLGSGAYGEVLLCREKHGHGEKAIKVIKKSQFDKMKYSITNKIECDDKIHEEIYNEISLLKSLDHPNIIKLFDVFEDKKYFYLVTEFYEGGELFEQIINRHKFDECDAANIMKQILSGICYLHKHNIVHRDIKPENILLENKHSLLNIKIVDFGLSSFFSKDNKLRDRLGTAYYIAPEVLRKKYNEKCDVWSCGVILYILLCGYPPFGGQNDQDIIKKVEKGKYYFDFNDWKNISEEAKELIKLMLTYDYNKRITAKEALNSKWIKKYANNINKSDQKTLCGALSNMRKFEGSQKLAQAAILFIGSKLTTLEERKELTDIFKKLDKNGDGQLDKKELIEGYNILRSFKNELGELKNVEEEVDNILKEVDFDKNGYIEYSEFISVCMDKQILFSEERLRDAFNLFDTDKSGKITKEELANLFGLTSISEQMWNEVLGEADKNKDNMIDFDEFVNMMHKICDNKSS

In general, IC50 refers to the midpoint of a concentration-inhibition curve. On to `CN(C)CCCNc1c2ccccc2nc2ccccc12`, for which the half-inhibitory concentration (IC50) in test [1] was greater than 1000 nM; in test [2], greater than 1000 nM; in test [3] it was greater than 1000 nM; in test [4] it was greater than 1000 nM; in test [5] it was greater than 1000 nM; on Proline--tRNA ligase it was greater than 2500 nM. In addition, the IC50 at Lysine--tRNA ligase is greater than 2500 nM.

For `O=C(NCC(c1ccsc1)N1CCCCCC1)c1ccc(C(F)(F)F)cc1` (stereo not drawn), the IC50 was greater than 1000 nM in test [1]; greater than 1000 nM in test [2]; greater than 1000 nM in test [3]; greater than 1000 nM in test [4]; greater than 1000 nM in test [5]; greater than 2500 nM on Proline--tRNA ligase. The IC50 at Lysine--tRNA ligase is greater than 2500 nM.

With `CCCCCC(=O)N1c2ccccc2N=C2CC(c3ccc(OC)c(OC)c3)CC(O)=C2C1c1ccc(C(F)(F)F)cc1` (stereo not drawn), the IC50 in test [1] was greater than 1000 nM; in test [2], greater than 1000 nM; in test [3], greater than 1000 nM; in test [4], greater than 1000 nM; in test [5] it was greater than 1000 nM; at Proline--tRNA ligase, greater than 2500 nM. Moreover, the half-inhibitory concentration (IC50) on Lysine--tRNA ligase is greater than 2500 nM.

Regarding `Cc1cc(NCCN2CCCCC2)c2ccc3ccccc3c2n1`, the IC50 in test [1] is greater than 1000 nM; in test [2], greater than 1000 nM; in test [3], greater than 1000 nM; in test [4], greater than 1000 nM; in test [5] it was greater than 1000 nM; at Proline--tRNA ligase, greater than 2500 nM. For the same molecule, the IC50 on Lysine--tRNA ligase is greater than 2500 nM.

Consider `COc1ccc(-c2nc(NC(=O)CS(=O)(=O)c3ccc(F)cc3)sc2C)cc1`, for which the IC50 in test [1] is greater than 1000 nM; in test [2] it was greater than 1000 nM; in test [3], greater than 1000 nM; in test [4], greater than 1000 nM; in test [5] it was greater than 1000 nM; on Proline--tRNA ligase it was greater than 2500 nM. Moreover, the half-maximal inhibitory concentration (IC50) on Lysine--tRNA ligase was greater than 2500 nM.

Consider `CCOC(=O)c1cn(CC)c2cc(N(C)CCc3ccc(OC)c(OC)c3)c(F)cc2c1=O`, for which the half-maximal inhibitory concentration (IC50) in test [1] is greater than 1000 nM; in test [2] it was greater than 1000 nM; in test [3] it was greater than 1000 nM; in test [4] it was greater than 1000 nM; in test [5], greater than 1000 nM; at Proline--tRNA ligase it was greater than 2500 nM. Also, the IC50 at Lysine--tRNA ligase was greater than 2500 nM.

For `O=[N+]([O-])c1ccc(C=NNc2nc3ccccc3[nH]2)cc1`, the IC50 was greater than 1000 nM in test [1]; greater than 1000 nM in test [2]; greater than 1000 nM in test [3]; greater than 1000 nM in test [4]; greater than 1000 nM in test [5]; greater than 2500 nM on Proline--tRNA ligase. Further, the IC50 on Lysine--tRNA ligase was greater than 2500 nM.

On to `Cc1cc(Nc2ccc(C)c(Cl)c2)n2nc(C(F)(F)F)nc2n1`, for which the IC50 was greater than 1000 nM in test [1]; greater than 1000 nM in test [2]; greater than 1000 nM in test [3]; greater than 1000 nM in test [4]; greater than 1000 nM in test [5]; greater than 2500 nM at Proline--tRNA ligase. Moreover, at Lysine--tRNA ligase, the IC50 is greater than 2500 nM.

`Fc1ccc2[nH]c3c(NCCCN4CCOCC4)ncnc3c2c1`: the IC50 is greater than 1000 nM in test [1]; greater than 1000 nM in test [2]; greater than 1000 nM in test [3]; greater than 1000 nM in test [4]; greater than 1000 nM in test [5]; greater than 2500 nM at Proline--tRNA ligase. Further, the IC50 on Lysine--tRNA ligase was greater than 2500 nM.

`CNCCCNc1ccnc2cc(Cl)ccc12`: the IC50 in test [1] is greater than 1000 nM; in test [2], greater than 1000 nM; in test [3], greater than 1000 nM; in test [4], greater than 1000 nM; in test [5] it was greater than 1000 nM; at Proline--tRNA ligase it was greater than 2500 nM. At Lysine--tRNA ligase, the IC50 was greater than 2500 nM.

For the molecule `CC1CCN(Cc2ccc(NC(=O)c3cc4ccc5cccnc5c4[nH]3)cc2)CC1`, the half-maximal inhibitory concentration (IC50) is greater than 1000 nM in test [1]; greater than 1000 nM in test [2]; greater than 1000 nM in test [3]; greater than 1000 nM in test [4]; greater than 1000 nM in test [5]; greater than 2500 nM on Proline--tRNA ligase. Besides, the IC50 at Lysine--tRNA ligase is greater than 2500 nM.

Take `CSc1ccccc1C(=O)Nc1nc(-c2ccccn2)cs1`: the half-inhibitory concentration (IC50) was greater than 1000 nM in test [1]; greater than 1000 nM in test [2]; greater than 1000 nM in test [3]; greater than 1000 nM in test [4]; greater than 1000 nM in test [5]; greater than 2500 nM on Proline--tRNA ligase. The concentration for half-maximal inhibition (IC50) at Lysine--tRNA ligase is greater than 2500 nM.

As to `COc1ccc(C(C)=O)cc1N1C(=O)C2C(C1=O)C1(c3ccccc3)C(=O)C2(c2ccccc2)C(c2ccc(C)cc2)=C1c1ccc(C)cc1` (stereo not drawn), the IC50 was greater than 1000 nM in test [1]; greater than 1000 nM in test [2]; greater than 1000 nM in test [3]; greater than 1000 nM in test [4]; greater than 1000 nM in test [5]; greater than 2500 nM on Proline--tRNA ligase. In addition, the IC50 on Lysine--tRNA ligase is greater than 2500 nM.

Consider `CCCc1c(CC)c(=N)c2ccccc2n1C`, for which the IC50 in test [1] is greater than 1000 nM; in test [2] it was greater than 1000 nM; in test [3] it was greater than 1000 nM; in test [4], greater than 1000 nM; in test [5] it was greater than 1000 nM; on Proline--tRNA ligase, greater than 2500 nM. For the same molecule, the half-maximal inhibitory concentration (IC50) on Lysine--tRNA ligase is greater than 2500 nM.

Source of the values: ChEMBL document CHEMBL3301562, “MMV Box screening against Plasmodium falciparum protein kinases and aminoacyl tRNA synthetases”.
